Measurements as given in ChEMBL document CHEMBL1140991, “Synthesis and testing of peptides for anti-prion activity” (Eur J Med Chem, 2008).
Peptide text beside a SMILES is read from it.

Assays:
brain [1] = assay: Antiprion activity against Scrapie prion protein-infected mouse brain cells assessed as remaining PrP-res level at 100 uM after 4 days by Western blotting relative to control; type: tissue-based
[2] = target: Major prion protein (Mus musculus) (UniProt P04925); assay: Inhibition of manganese-induced aggregation in mouse recombinant PrP assessed as PrP-res formation at 100 uM after 30 mins relative to control; design: scale not given: the % may be the effect or the level left
[3] = target: Major prion protein (Mus musculus) (UniProt P04925); assay: Inhibition of mouse recombinant PrP interaction with scrapie mouse brain PrP-res assessed as PrP-res formation at 100 uM after 30 mins by aggregation assay relative to control
brain [4] = assay: Antiprion activity against Scrapie prion protein-infected mouse brain cells assessed as remaining PrP-res level at 10 uM after 4 days by Western blotting relative to control; type: tissue-based

Major prion protein (Mus musculus), sequence (P04925 whole entry): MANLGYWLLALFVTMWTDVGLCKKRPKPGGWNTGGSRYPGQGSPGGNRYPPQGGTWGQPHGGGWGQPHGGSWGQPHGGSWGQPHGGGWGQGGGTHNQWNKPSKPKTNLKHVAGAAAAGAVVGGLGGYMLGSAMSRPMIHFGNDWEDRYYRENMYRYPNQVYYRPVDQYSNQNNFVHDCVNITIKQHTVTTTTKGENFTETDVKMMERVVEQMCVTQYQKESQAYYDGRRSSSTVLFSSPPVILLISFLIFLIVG

Compound | Activity (brain [1]) [%] | Activity [2] [%] | PrP-res formation relative to control [3] [%] | Remaining PrP-res level (brain [4]) [%]
H-KHAAGAAAAGAVV-NH2 | 93 | 112 | – | –
H-HPAGAAAAGAV-NH2 | 135 | 74 | – | –
H-AAGAAAAG-NH2 | 108 | 23 | 23 | –
H-VAGAAAAGA-NH2 | 93 | 84 | – | –
CC(C)[C@H](NC(=O)[C@@H](NC(=O)[C@H](C)NC(=O)CNC(=O)[C@H](C)NC(=O)[C@H](C)NC(=O)[C@H](C)NC(=O)[C@H](C)NC(=O)[C@@H]1CCCN1C(=O)[C@H](C)NC(=O)[C@@H](C)N)C(C)C)C(N)=O | 14 | 22 | 22 | 131
NCC(=O)N1CCC[C@H]1C(=O)N1CCC[C@H]1C(N)=O (H-Gly-Pro-Pro-NH2) | 25 | 81 | – | –
H-PAGAAAA-NH2 | 71 | – | – | –
C[C@H](NC(=O)CNC(=O)[C@@H]1CCCN1C(=O)[C@H](C)NC(=O)[C@H](C)NC(=O)[C@H](C)NC(=O)[C@@H]1CCCN1C(=O)[C@H](C)NC(=O)[C@@H](C)N)C(N)=O | 33 | 85 | – | –
H-PLGSAMSR-NH2 | 45 | 11 | – | –
H-HPAGAAAAGA-NH2 | 23 | 11 | 11 | –
H-PAGAAAAGA-NH2 | 100 | 71 | – | –
C[C@H](NC(=O)CNC(=O)[C@H](C)NC(=O)[C@@H](C)N)C(=O)N[C@@H](C)C(=O)N[C@@H](C)C(=O)N1CCC[C@H]1C(=O)NCC(=O)N1CCC[C@H]1C(N)=O | 88 | 27 | – | –
H-PAGAAAAGAVV-NH2 | 132 | 28 | 28 | –
H-KHAAPAAAAGA-NH2 | 70 | 73 | – | –
H-GAAPPG-NH2 | 5 | 240 | – | –
C[C@H](NC(=O)CNC(=O)[C@H](C)NC(=O)[C@@H](C)N)C(=O)N[C@@H](C)C(=O)N[C@@H](C)C(=O)N1CCC[C@H]1C(N)=O | 206 | – | – | –
H-KHPAGAAAAGAVV-NH2 | 68 | 73 | – | –
C[C@H](NC(=O)[C@H](C)NC(=O)[C@H](C)NC(=O)[C@H](C)NC(=O)[C@@H]1CCCN1C(=O)[C@H](C)NC(=O)[C@@H](C)N)C(=O)NCC(N)=O | 128 | 46 | 46 | –
H-GAPAPG-NH2 | 52 | 85 | – | –
H-KHAAPAAAAGAVV-NH2 | 68 | 44 | 44 | –

Compound | Activity (brain [1]) [%] | Activity [2] [%] | PrP-res formation relative to control [3] [%] | Remaining PrP-res level (brain [4]) [%]
H-PAGAAAAGAV-NH2 | 112 | 77 | – | –
C[C@H](NC(=O)[C@@H]1CCCN1C(=O)[C@@H](C)N)C(N)=O | 45 | 148 | – | –
H-HAAGAAAPGAV-NH2 | 32 | 64 | – | –
H-AAGAAAAGAV-NH2 | 133 | 57 | – | –
H-GAAAPP-NH2 | 30 | 148 | – | –
C[C@H](NC(=O)[C@@H]1CCCN1C(=O)[C@H](C)NC(=O)CN)C(=O)O (H-GAPA-OH) | 47 | 266 | – | –
H-GPAAPG-NH2 | 261 | 48 | – | –
H-AAGAAAAGA-NH2 | 56 | 76 | – | –
H-MLGSAPSR-NH2 | 61 | 1 | – | –
H-HAAGAAAAGAV-NH2 | 74 | 34 | – | –
CC(C)[C@H](NC(=O)[C@H](C)NC(=O)CNC(=O)[C@@H]1CCCN1C(=O)[C@H](C)NC(=O)[C@H](C)NC(=O)[C@H](C)NC(=O)CNC(=O)[C@H](C)NC(=O)[C@@H](C)N)C(N)=O | 129 | 54 | – | –
C[C@H](NC(=O)[C@@H]1CCCN1C(=O)[C@@H]1CCCN1)C(N)=O (H-Pro-Pro-Ala-NH2) | 10 | 125 | – | –
H-KHAAGAAAAGA-NH2 | 59 | 102 | – | –
H-KHAAGAAAPGA-NH2 | 44 | 52 | – | –
C[C@H](NC(=O)CNC(=O)[C@H](C)NC(=O)[C@H](C)NC(=O)[C@H](C)NC(=O)[C@H](C)NC(=O)[C@@H]1CCCN1C(=O)[C@H](C)NC(=O)[C@@H](C)N)C(N)=O | 66 | 103 | – | –
C[C@H](NC(=O)CNC(=O)[C@@H]1CCCN1C(=O)[C@H](C)NC(=O)[C@H](C)NC(=O)[C@H](C)NC(=O)CNC(=O)[C@H](C)NC(=O)[C@@H](C)N)C(N)=O | 81 | 27 | – | –
C[C@H](NC(=O)[C@H](C)NC(=O)[C@H](C)NC(=O)[C@H](C)NC(=O)[C@@H]1CCCN1C(=O)[C@H](C)NC(=O)[C@@H](C)N)C(N)=O | 195 | 2 | 2 | –
CC(C)[C@H](NC(=O)[C@H](C)NC(=O)CNC(=O)[C@H](C)NC(=O)[C@H](C)NC(=O)[C@H](C)NC(=O)[C@H](C)NC(=O)[C@@H]1CCCN1C(=O)[C@H](C)NC(=O)[C@@H](C)N)C(N)=O | 148 | 28 | – | –
H-AAGAAAA-NH2 | 65 | – | – | –
H-KHAAGAAAPGAVV-NH2 | 7 | 86 | – | 108

Compound | Activity (brain [1]) [%] | Activity [2] [%] | PrP-res formation relative to control [3] [%] | Remaining PrP-res level (brain [4]) [%]
C[C@H](NC(=O)[C@@H](C)N)C(=O)N1CCC[C@H]1C(=O)NCC(N)=O | 100 | 88 | – | –
C[C@H](NC(=O)[C@@H]1CCCN1)C(=O)N1CCC[C@H]1C(N)=O (H-Pro-Ala-Pro-NH2) | 156 | 59 | – | –
H-HAAGAAAPGA-NH2 | 183 | 28 | – | –
H-PAGAAAPGA-NH2 | 79 | 56 | – | –
CC(C)[C@H](NC(=O)[C@@H](NC(=O)[C@H](C)NC(=O)CNC(=O)[C@@H]1CCCN1C(=O)[C@H](C)NC(=O)[C@H](C)NC(=O)[C@H](C)NC(=O)CNC(=O)[C@H](C)NC(=O)[C@@H](C)N)C(C)C)C(N)=O | 5 | 52 | 52 | 73
C[C@H](NC(=O)CNC(=O)[C@H](C)NC(=O)[C@@H](C)N)C(=O)N[C@@H](C)C(=O)N[C@@H](C)C(=O)N1CCC[C@H]1C(=O)NCC(N)=O | 108 | 2 | 2 | –
H-AAGAAAAGAVV-NH2 | 34 | 17 | 17 | 200
H-HAAPAAAAGAV-NH2 | 225 | 38 | – | –
NC(=O)CNC(=O)[C@@H]1CCCN1C(=O)[C@@H]1CCCN1 (H-Pro-Pro-Gly-NH2) | 48 | 96 | – | –
C[C@H](NC(=O)[C@H](C)NC(=O)[C@@H]1CCCN1)C(N)=O (H-Pro-Ala-Ala-NH2) | 51 | 88 | – | –
H-MAGAAAAGA-NH2 | 89 | 104 | – | –
H-HAAPAAAAGA-NH2 | 151 | 93 | – | –
C[C@H](NC(=O)CNC(=O)[C@@H]1CCCN1C(=O)[C@H](C)NC(=O)[C@H](C)NC(=O)[C@H](C)NC(=O)CNC(=O)[C@@H]1CCCN1C(=O)[C@@H](C)N)C(N)=O | 7 | 89 | – | –
H-PAGAAAAG-NH2 | 10 | 130 | – | 158
H-HAAGAAAAGA-NH2 | 39 | 59 | – | –
C[C@H](NC(=O)CN)C(=O)N1CCC[C@H]1C(N)=O (H-Gly-Ala-Pro-NH2) | 32 | 111 | – | –
H-GAAAPG-NH2 | 124 | 111 | – | –
H-KHPAGAAAAGA-NH2 | 83 | 19 | – | –
